Experimental data from ChEMBL document CHEMBL4330136, “Shape-based virtual screen for the discovery of novel CDK8 inhibitor chemotypes” (Bioorg Med Chem Lett, 2019).

Key:
CDK8/Cyclin C = CDK8/Cyclin C (Homo sapiens, UniProt P49336); test: Inhibition of kinase tracer 236 binding to recombinant full length His-tagged human CDK8/CycC expressed in baculovirus expression system preincubated for 20 mins followed by tracer addition and measured after 2 hrs by FRET-based LanthaScreen Eu kinase binding assay
Chain of CDK8/Cyclin C (P49336 whole entry): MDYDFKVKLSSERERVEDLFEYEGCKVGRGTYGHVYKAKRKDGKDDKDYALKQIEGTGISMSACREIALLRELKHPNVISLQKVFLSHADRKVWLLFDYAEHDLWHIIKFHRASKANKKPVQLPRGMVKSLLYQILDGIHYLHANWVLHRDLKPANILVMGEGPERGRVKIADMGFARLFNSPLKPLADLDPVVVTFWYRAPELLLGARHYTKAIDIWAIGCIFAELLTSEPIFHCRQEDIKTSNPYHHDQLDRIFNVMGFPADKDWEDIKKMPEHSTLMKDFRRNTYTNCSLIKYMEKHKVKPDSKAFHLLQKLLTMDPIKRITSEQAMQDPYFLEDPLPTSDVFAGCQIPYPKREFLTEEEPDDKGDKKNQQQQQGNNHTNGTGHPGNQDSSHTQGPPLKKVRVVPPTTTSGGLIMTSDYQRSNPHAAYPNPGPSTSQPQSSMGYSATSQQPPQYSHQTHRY
Chain of CDK8/Cyclin C (P24863 whole entry, further chain): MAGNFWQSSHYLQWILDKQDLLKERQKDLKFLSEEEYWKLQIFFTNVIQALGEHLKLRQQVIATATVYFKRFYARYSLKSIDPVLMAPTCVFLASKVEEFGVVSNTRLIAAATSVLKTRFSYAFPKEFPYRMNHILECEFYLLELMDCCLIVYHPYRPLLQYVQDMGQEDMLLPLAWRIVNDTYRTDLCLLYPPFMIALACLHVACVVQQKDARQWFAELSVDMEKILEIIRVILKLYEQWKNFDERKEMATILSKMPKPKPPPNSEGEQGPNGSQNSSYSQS

HCT-116 [1] = test: Growth inhibition of human HCT116 cells after 72 hrs by Celltiter-glo assay; format: functional, cell-based; conditions: HCT-116, 72 h
SW-620 [2] = test: Growth inhibition of human SW620 cells after 72 hrs by Celltiter-glo assay; format: functional, cell-based; conditions: SW-620, 72 h
HCT-116 [3] = test: Cell cycle arrest in human HCT116 cells assessed as accumulation at G1-phase at 5 uM after 12 to 16 hrs by propidium iodide staining based flow cytometry (reference value: 30.99%); format: functional
HCT-116 [4] = test: Cell cycle arrest in human HCT116 cells assessed as accumulation at G1-phase at 15 uM after 12 to 16 hrs by propidium iodide staining based flow cytometry (reference value: 30.99%); format: functional
HCT-116 [5] = test: Cell cycle arrest in human HCT116 cells assessed as accumulation at G1-phase at 30 uM after 12 to 16 hrs by propidium iodide staining based flow cytometry (reference value: 30.99%); format: functional
HCT-116 [6] = test: Cell cycle arrest in human HCT116 cells assessed as accumulation at S-phase at 5 uM after 12 to 16 hrs by propidium iodide staining based flow cytometry (reference value: 55.74%); format: functional
HCT-116 [7] = test: Cell cycle arrest in human HCT116 cells assessed as accumulation at S-phase at 15 uM after 12 to 16 hrs by propidium iodide staining based flow cytometry (reference value: 55.74%); format: functional
HCT-116 [8] = test: Cell cycle arrest in human HCT116 cells assessed as accumulation at S-phase at 30 uM after 12 to 16 hrs by propidium iodide staining based flow cytometry (reference value: 55.74%); format: functional
HCT-116 [9] = test: Cell cycle arrest in human HCT116 cells assessed as accumulation at G2-phase at 5 uM after 12 to 16 hrs by propidium iodide staining based flow cytometry (reference value: 13.28%); format: functional
HCT-116 [10] = test: Cell cycle arrest in human HCT116 cells assessed as accumulation at G2-phase at 15 uM after 12 to 16 hrs by propidium iodide staining based flow cytometry (reference value: 13.28%); format: functional
HCT-116 [11] = test: Cell cycle arrest in human HCT116 cells assessed as accumulation at G2-phase at 30 uM after 12 to 16 hrs by propidium iodide staining based flow cytometry (reference value: 13.28%); format: functional
SW-620 [12] = test: Cell cycle arrest in human SW620 cells assessed as accumulation at G1-phase at 5 uM after 12 to 16 hrs by propidium iodide staining based flow cytometry (reference value: 24.69%); format: functional
SW-620 [13] = test: Cell cycle arrest in human SW620 cells assessed as accumulation at G1-phase at 15 uM after 12 to 16 hrs by propidium iodide staining based flow cytometry (reference value: 24.69%); format: functional
SW-620 [14] = test: Cell cycle arrest in human SW620 cells assessed as accumulation at G1-phase at 30 uM after 12 to 16 hrs by propidium iodide staining based flow cytometry (reference value: 24.69%); format: functional
SW-620 [15] = test: Cell cycle arrest in human SW620 cells assessed as accumulation at S-phase at 5 uM after 12 to 16 hrs by propidium iodide staining based flow cytometry (reference value: 53.91%); format: functional
SW-620 [16] = test: Cell cycle arrest in human SW620 cells assessed as accumulation at S-phase at 15 uM after 12 to 16 hrs by propidium iodide staining based flow cytometry (reference value: 53.91%); format: functional
SW-620 [17] = test: Cell cycle arrest in human SW620 cells assessed as accumulation at S-phase at 30 uM after 12 to 16 hrs by propidium iodide staining based flow cytometry (reference value: 53.91%); format: functional
SW-620 [18] = test: Cell cycle arrest in human SW620 cells assessed as accumulation at G2-phase at 5 uM after 12 to 16 hrs by propidium iodide staining based flow cytometry (reference value: 19.02%); format: functional
SW-620 [19] = test: Cell cycle arrest in human SW620 cells assessed as accumulation at G2-phase at 15 uM after 12 to 16 hrs by propidium iodide staining based flow cytometry (reference value: 19.02%); format: functional
SW-620 [20] = test: Cell cycle arrest in human SW620 cells assessed as accumulation at G2-phase at 30 uM after 12 to 16 hrs by propidium iodide staining based flow cytometry (reference value: 19.02%); format: functional
HCT-116 [21] = test: Induction of G1-phase to S-phase transition arrest in human HCT116 cells after 12 to 16 hrs by propidium iodide staining based flow cytometry; format: functional, cell-based

Row | Structure (SMILES) | IC50 (CDK8/Cyclin C) [µM] | IC50 (HCT-116 [1]) [µM] | IC50 (SW-620 [2]) [µM] | Activity (HCT-116 [3]) [%] | Activity (HCT-116 [4]) [%] | Activity (HCT-116 [5]) [%] | Activity (HCT-116 [6]) [%] | Activity (HCT-116 [7]) [%] | Activity (HCT-116 [8]) [%] | Activity (HCT-116 [9]) [%] | Activity (HCT-116 [10]) [%] | Activity (HCT-116 [11]) [%] | Activity (SW-620 [12]) [%] | Activity (SW-620 [13]) [%] | Activity (SW-620 [14]) [%] | Activity (SW-620 [15]) [%] | Activity (SW-620 [16]) [%] | Activity (SW-620 [17]) [%] | Activity (SW-620 [18]) [%] | Activity (SW-620 [19]) [%] | also measured
1 | COc1ccc(C(=O)c2cnc3ccc(F)cc3c2N2CCCCC2)cc1 | 1.3 | 4.5 | 25 | 35.24 | 47.09 | 62.66 | 51.63 | 38.98 | 23.48 | 13.13 | 13.92 | 13.86 | 25.08 | 28.05 | 41.68 | 54.27 | 51.89 | 38.54 | 18.15 | 17.69 | Activity (SW-620 [20]): 16.94%; Activity (HCT-116 [21]): Dose-dependent effect
2 | Cc1n[nH]c2ncc(C(=O)N3CCC[C@H]3c3ccc(Cl)cc3)cc12 |  | 70.2 | 52.4 | 48.91 | 47.08 | 50.47 | 29.34 | 27.98 | 22.36 | 21.76 | 24.8 | 27.16 | 27.52 | 30.31 | 34.8 | 56.44 | 54.86 | 50.77 | 13.83 | 12.35 | Activity (SW-620 [20]): 11.66%
3 | COc1ccc(CNc2ncnc3scc(-c4ccccc4)c23)cc1 | 2.9 |  |  |  |  |  |  |  |  |  |  |  |  |  |  |  |  |  |  |  | 
